Patent publication US20230278972A1, “SUBSTITUTED HALOALKYL SULFONANILIDE HERBICIDES” (FMC Corporation, priority 2020, published 2023)

How the values were obtained:
Assay type in all cases: in vivo
[1] = tested on: ragweed (common ragweed, Ambrosia artemisiifolia); experiment: Test A1 preemergence, ragweed
Excerpt: (§1) Seeds of plant species selected from, blackgrass (Alopecurus myosuroides), corn (Zea mays), Foxtail, Giant (giant foxtail, Setaria faberi), goosegrass (Eleusine indica), kochia (Bassia scoparia), Oat, Wild (wild oat, Avena fatua), Pigweed, Palmer (palmer amaranth, palmer pigweed, Amaranthus palmeri), ragweed (common ragweed, Ambrosia artemisiifolia), Ryegrass, Italian (Italian ryegrass, Lolium multiflorum), soybean (Glycine max), and wheat (Triticum aestivum) were planted into a blend of loam soil and sand and treated preemergence with a directed soil spray using test chemicals formulated in a non-phytotoxic solvent mixture which included a surfactant. At the same time, plants selected from these crop and weed species and also galium (catchweed bedstraw, Galium aparine) and horseweed (Erigeron canadensis) were planted in pots containing the same blend of loam soil and sand and treated with postemergence applications of test chemicals formulated in the same manner. Plants ranged in height from 2 to 10 cm and were in the one- to two-leaf stage for the postemergence treatment. […] A dash (-) response means no test result.

[2] = tested on: Foxtail, Giant (giant foxtail, Setaria faberi); experiment: Test A1 postemergence, Foxtail, Giant; details: for Plant response rating, Foxtail, Giant: Postemergence
Excerpt: as §1

kochia (Bassia scoparia) [3] = experiment: Test A1 postemergence, kochia; details: for Plant response rating, Kochia: Postemergence
Excerpt: as §1

[4] = tested on: Pigweed, Palmer (palmer amaranth, palmer pigweed, Amaranthus palmeri); experiment: Test A1 postemergence, Pigweed, Palmer; details: for Plant response rating, Pigweed, Palmer: Postemergence
Excerpt: as §1

[5] = tested on: goosegrass (Eleusine indica); experiment: Test A1 postemergence, goosegrass; details: for Plant response rating, Goosegrass: Postemergence
Excerpt: as §1

soybean (Glycine max) [6] = experiment: Test A1 preemergence, soybean
Excerpt: as §1

kochia (Bassia scoparia) [7] = experiment: Test A1 preemergence, kochia
Excerpt: as §1

[8] = tested on: ragweed (common ragweed, Ambrosia artemisiifolia); experiment: Test A1 postemergence, ragweed; details: for Plant response rating, Ragweed: Postemergence
Excerpt: as §1

[9] = tested on: wheat (Triticum aestivum); experiment: Test A1 postemergence, wheat; details: for Plant response rating, Wheat: Postemergence
Excerpt: as §1

[10] = tested on: blackgrass (Alopecurus myosuroides); experiment: Test A1 preemergence, blackgrass
Excerpt: as §1

rice (Oryza sativa) = experiment: Test B1 flooded paddy test, rice; details: 250 g ai/ha, Flood, applied to paddy water, 2-leaf stage, visually evaluated after 10 to 14 days
Excerpt: (§2) A dash (-) response means no test result.

[11] = tested on: barnyardgrass (Echinochloa crus-galli); experiment: Test B1 flooded paddy test, barnyardgrass; details: 250 g ai/ha, Flood, applied to paddy water, 2-leaf stage, visually evaluated after 10 to 14 days
Excerpt: as §2

[12] = tested on: goosegrass (Eleusine indica); experiment: Test A1 preemergence, goosegrass
Excerpt: as §1

[13] = tested on: Oat, Wild (wild oat, Avena fatua); experiment: Test A1 postemergence, Oat, Wild; details: for Plant response rating, Oat, Wild: Postemergence
Excerpt: as §1

[14] = tested on: galium (catchweed bedstraw, Galium aparine); experiment: Test A1 postemergence, galium; details: for Plant response rating, Galium: Postemergence
Excerpt: as §1

corn (Zea mays) [15] = experiment: Test A1 preemergence, corn
Excerpt: as §1

[16] = tested on: wheat (Triticum aestivum); experiment: Test A1 preemergence, wheat
Excerpt: as §1

soybean (Glycine max) [17] = experiment: Test A1 postemergence, soybean; details: for Plant response rating, Soybean: Postemergence
Excerpt: as §1

corn (Zea mays) [18] = experiment: Test A1 postemergence, corn; details: Postemergence
Excerpt: as §1

[19] = tested on: Foxtail, Giant (giant foxtail, Setaria faberi); experiment: Test A1 preemergence, Foxtail, Giant
Excerpt: as §1

[20] = tested on: blackgrass (Alopecurus myosuroides); experiment: Test A1 postemergence, blackgrass; details: Postemergence, 0 to 100 scale (0 no effect, 100 complete control)
Excerpt: as §1

[21] = tested on: Ryegrass, Italian (Italian ryegrass, Lolium multiflorum); experiment: Test A1 preemergence, Ryegrass, Italian
Excerpt: as §1

[22] = tested on: Oat, Wild (wild oat, Avena fatua); experiment: Test A1 preemergence, Oat, Wild
Excerpt: as §1

[23] = tested on: Pigweed, Palmer (palmer amaranth, palmer pigweed, Amaranthus palmeri); experiment: Test A1 preemergence, Pigweed, Palmer
Excerpt: as §1

[24] = tested on: Ryegrass, Italian (Italian ryegrass, Lolium multiflorum); experiment: Test A1 postemergence, Ryegrass, Italian; details: for Plant response rating, Ryegrass, Italian: Postemergence
Excerpt: as §1

[25] = tested on: ducksalad (Heteranthera limosa); experiment: Test B1 flooded paddy test, ducksalad; details: 250 g ai/ha, Flood, applied to paddy water, 2-leaf stage, visually evaluated after 10 to 14 days
Excerpt: as §2

[26] = 31 g ai/ha, 0 to 100 scale (0 no effect, 100 complete control)
[27] = 125 g ai/ha, 0 to 100 scale, 0 no effect, 100 complete control
[28] = 31 g ai/ha, 0 to 100 scale (0 no effect, 100 complete control), 10 days
[29] = 31 g ai/ha, postemergence, 0 to 100 scale (0 no effect, 100 complete control)

Cc1c(C(=O)N2CCOCC2)cc(N(COC(=O)C(C)(C)C)S(=O)(=O)C(F)(F)F)c(C)c1C [Compound 324, [[(Trifluoromethyl)sulfonyl][2,3,4-trimethyl-5-(4-morpholinylcarbonyl)phenyl]amino]methyl 2,2-dimethylpropanoate]
Plant response rating, Ragweed [1, 26]: 20 | Plant response rating, Ragweed [1, 27]: 80 | Plant response rating, Foxtail, Giant [2, 28]: 20 | Plant response rating, Foxtail, Giant ([2]; 125 g ai/ha, 0 to 100 scale): 90 | Plant response rating, Kochia (kochia (Bassia scoparia) [3]; [28]): 30 | Plant response rating, Kochia (kochia (Bassia scoparia) [3]; 125 g ai/ha, 0 to 100 scale): 50 | Plant response rating, Pigweed, Palmer [4, 28]: 30 | Plant response rating, Pigweed, Palmer ([4]; 125 g ai/ha, 0 to 100 scale): 70 | Plant response rating, Goosegrass [5, 28]: 30 | Plant response rating, Goosegrass ([5]; 125 g ai/ha, 0 to 100 scale): 80 | Plant response rating, Soybean (soybean (Glycine max) [6]; [26]): 20 | Plant response rating, Soybean (soybean (Glycine max) [6]; [27]): 60 | Plant response rating, Kochia (kochia (Bassia scoparia) [7]; [26]): 60 | Plant response rating, Kochia (kochia (Bassia scoparia) [7]; [27]): 90 | Plant response rating, Ragweed [8, 28]: 70 | Plant response rating, Ragweed ([8]; 125 g ai/ha, 0 to 100 scale): 70 | Plant response rating, Wheat [9, 28]: 0 | Plant response rating, Wheat ([9]; 125 g ai/ha, 0 to 100 scale): 30 | Plant response rating, Blackgrass [10, 26]: 20 | Plant response rating, Blackgrass [10, 27]: 30 | Plant response rating, Rice (0 to 100 scale, 0 is no effect, 100 is complete control) (rice (Oryza sativa)): 0 | Plant response rating, Barnyardgrass (0 to 100 scale, 0 is no effect, 100 is complete control) [11]: 90 | Plant response rating, Goosegrass [12, 26]: 80 | Plant response rating, Goosegrass [12, 27]: 100 | Plant response rating, Oat, Wild [13, 28]: 0 | Plant response rating, Oat, Wild ([13]; 125 g ai/ha, 0 to 100 scale): 0 | Plant response rating, Galium [14, 28]: 50 | Plant response rating, Galium ([14]; 125 g ai/ha, 0 to 100 scale): 80 | Plant response rating, Corn (corn (Zea mays) [15]; [26]): 20 | Plant response rating, Corn (corn (Zea mays) [15]; [27]): 40 | Plant response rating, Wheat [16, 26]: 0 | Plant response rating, Wheat [16, 27]: 70 | Plant response rating, Soybean (soybean (Glycine max) [17]; [28]): 50 | Plant response rating, Soybean (soybean (Glycine max) [17]; 125 g ai/ha, 0 to 100 scale): 60 | Plant response rating, Corn (corn (Zea mays) [18]; [28]): 30 | Plant response rating, Corn (corn (Zea mays) [18]; 125 g ai/ha, 0 to 100 scale): 30 | Plant response rating, Foxtail, Giant [19, 26]: 90 | Plant response rating, Foxtail, Giant [19, 27]: 100 | Plant response rating, Blackgrass ([20]; 31 g ai/ha, 10 days): 0 | Plant response rating, Blackgrass ([20]; 125 g ai/ha): 0 | Plant response rating, Ryegrass, Italian [21, 26]: 20 | Plant response rating, Ryegrass, Italian [21, 27]: 100 | Plant response rating, Oat, Wild [22, 26]: 20 | Plant response rating, Oat, Wild [22, 27]: 40 | Plant response rating, Pigweed, Palmer [23, 26]: 100 | Plant response rating, Pigweed, Palmer [23, 27]: 100 | Plant response rating, Ryegrass, Italian [24, 28]: 0 | Plant response rating, Ryegrass, Italian ([24]; 125 g ai/ha, 0 to 100 scale): 30 | Plant response rating, Ducksalad (0 to 100 scale, 0 is no effect, 100 is complete control) [25]: 80

COC1CCN(C(=O)c2cc(N(COC(=O)C(C)(C)C)S(=O)(=O)C(F)(F)F)c(C)c(C)c2C)CC1 [Compound 370]
Plant response rating, Ragweed [1, 26]: 0 | Plant response rating, Ragweed [1, 27]: 70 | Foxtail, Giant plant response rating [2, 29]: 10 | Plant response rating, Foxtail, Giant ([2]; 125 g ai/ha, 0 to 100 scale): 80 | Kochia plant response rating (kochia (Bassia scoparia) [3]; [29]): 0 | Plant response rating, Kochia (kochia (Bassia scoparia) [3]; 125 g ai/ha, 0 to 100 scale): 20 | Pigweed, Palmer plant response rating [4, 29]: 0 | Plant response rating, Pigweed, Palmer ([4]; 125 g ai/ha, 0 to 100 scale): 20 | Goosegrass plant response rating [5, 29]: 0 | Plant response rating, Goosegrass ([5]; 125 g ai/ha, 0 to 100 scale): 60 | Plant response rating, Soybean (soybean (Glycine max) [6]; [26]): 0 | Plant response rating, Soybean (soybean (Glycine max) [6]; [27]): 0 | Plant response rating, Kochia (kochia (Bassia scoparia) [7]; [26]): 0 | Plant response rating, Kochia (kochia (Bassia scoparia) [7]; [27]): 20 | Ragweed plant response rating [8, 29]: 50 | Plant response rating, Ragweed ([8]; 125 g ai/ha, 0 to 100 scale): 70 | Wheat plant response rating [9, 29]: 10 | Plant response rating, Wheat ([9]; 125 g ai/ha, 0 to 100 scale): 20 | Plant response rating, Blackgrass [10, 26]: 0 | Plant response rating, Blackgrass [10, 27]: 0 | Plant response rating, Rice (0 to 100 scale, 0 is no effect, 100 is complete control) (rice (Oryza sativa)): 25 | Plant response rating, Barnyardgrass (0 to 100 scale, 0 is no effect, 100 is complete control) [11]: 95 | Plant response rating, Goosegrass [12, 26]: 30 | Plant response rating, Goosegrass [12, 27]: 90 | Oat, Wild plant response rating [13, 29]: 0 | Plant response rating, Oat, Wild ([13]; 125 g ai/ha, 0 to 100 scale): 0 | Galium plant response rating [14, 29]: 90 | Plant response rating, Galium ([14]; 125 g ai/ha, 0 to 100 scale): 100 | Plant response rating, Corn (corn (Zea mays) [15]; [26]): 0 | Plant response rating, Corn (corn (Zea mays) [15]; [27]): 0 | Plant response rating, Wheat [16, 26]: 0 | Plant response rating, Wheat [16, 27]: 10 | Soybean plant response rating (soybean (Glycine max) [17]; [29]): 50 | Plant response rating, Soybean (soybean (Glycine max) [17]; 125 g ai/ha, 0 to 100 scale): 80 | Plant response rating, Corn (corn (Zea mays) [18]; [28]): 0 | Plant response rating, Corn (corn (Zea mays) [18]; 125 g ai/ha, 0 to 100 scale): 90 | Plant response rating, Foxtail, Giant [19, 26]: 10 | Plant response rating, Foxtail, Giant [19, 27]: 90 | Plant response rating, Blackgrass ([20]; 31 g ai/ha, 10 days): 0 | Plant response rating, Blackgrass ([20]; 125 g ai/ha): 0 | Plant response rating, Ryegrass, Italian [21, 26]: 30 | Plant response rating, Ryegrass, Italian [21, 27]: 30 | Plant response rating, Oat, Wild [22, 26]: 0 | Plant response rating, Oat, Wild [22, 27]: 0 | Plant response rating, Pigweed, Palmer [23, 26]: 30 | Plant response rating, Pigweed, Palmer [23, 27]: 70 | Ryegrass, Italian plant response rating [24, 29]: 0 | Plant response rating, Ryegrass, Italian ([24]; 125 g ai/ha, 0 to 100 scale): 0 | Plant response rating, Ducksalad (0 to 100 scale, 0 is no effect, 100 is complete control) [25]: 70
